One compound from patent US5281604A, “Angiotensin II receptor blocking 2,3,6-substituted quinazolinones” (American Cyanamid Company, priority 1993, dated 1994) can be followed below.

The target of the experiment is T1, Angiotensin II Receptor (Bos taurus, UniProt P25104).
T1 construct: beef adrenal glands are processed as follows: fresh adrenal glands received on crushed ice are cleaned of fatty tissues; tissue Maxwell-Cohen (local slaughter house); host or cells: beef adrenal cortex, microsomal membranes (100,000×g pellet)
T1 sequence (P25104 1-359): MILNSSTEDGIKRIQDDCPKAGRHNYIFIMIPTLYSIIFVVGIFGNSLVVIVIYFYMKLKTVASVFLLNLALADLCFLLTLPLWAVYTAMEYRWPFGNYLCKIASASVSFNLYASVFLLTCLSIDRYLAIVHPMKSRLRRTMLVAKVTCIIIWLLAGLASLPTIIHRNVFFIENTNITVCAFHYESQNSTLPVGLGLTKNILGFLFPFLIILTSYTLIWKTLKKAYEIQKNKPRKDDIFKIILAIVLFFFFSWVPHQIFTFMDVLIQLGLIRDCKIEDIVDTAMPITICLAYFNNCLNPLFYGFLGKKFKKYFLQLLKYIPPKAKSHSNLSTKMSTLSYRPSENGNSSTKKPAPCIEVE
Nature of the experiment: Receptor Binding Assay: displacement of [125I](Sar1,Ile8)AngII from beef adrenal cortex microsomal membranes. As to conditions: 60 min room temperature. From the text: Beef adrenals are obtained from a local slaughter house (Maxwell-Cohen).
[^125 I](Sar^1,Ile^8)AngII, S.A. 2200 Ci/mmole, is purchased from Dupont (NEN®, Boston, Mass.). All unlabeled AngII analogs, Dimethylsulfoxide (DMSO), nucleotides, bovine serum albumin (BSA) are purchased from Sigma Chemical Co., St. Louis, Mo. U.S.A.
Approximately sixteen (16) to twenty (20) beef adrenal glands are processed as follows: fresh adrenal glands received on crushed ice are cleaned of fatty tissues and the tough membranes encapsulating the glands are removed and discarded. The brownish tissue forming the adrenal cortex is scraped off and finely minced with scissors before homogenization. Care is taken to avoid contamination with medullary tissue during dissection. The scraped cortices are suspended in twenty volumes of an ice-cold buffer medium consisting of 10 mM Tris.HCl (pH 7.4 at 22° C.) and containing 1.0 mM EDTA and 0.2M sucrose. Unless otherwise indicated, all subsequent operations are done at 4° C. […] The homogenate is centrifuged first at low speed (3,000×g) for 10 min. The resulting pellet is discarded and the supernatant fluid recentrifuged at 10,000×g for 15 minutes to give a P2 pellet. This P2 pellet is discarded and the liquid phase is carefully decanted off in clean centrifuge tubes and recentrifuged at high speed (100,000×g) for 60 min. The translucent final pellet is harvested and combined in a small volume (20-50.0 ml) of 50.0 mM Tris.HCl buffer, pH 7.2. A 100 ul aliquot is withdrawn and the protein content of the preparation is determined by the Lowry's method (Lowry, O. H., Rosebrough, N. F., Farr, A. L. and Randall, R. J., Protein measurement with Folin phenol reagent. J. Biol. Chem., […], 265-275, 1951). The pelleted membrane is reconstituted in 50.0 mM Tris.HCl buffer containing 0.1 mM of phenylmethylsulfonyl fluoride (PMSF) to give approximately a protein concentration of 2.5 mg per ml of tissue suspension. The membrane preparation is finally aliquoted in 1.0 ml volumes and stored at -70° C. until use in the binding assays.
The binding of [^125 I](Sar^1.Ile^8)AngII to microsomal membranes is initiated by the addition of reconstituted membranes (1:10 vols.) in freshly made 50.0 mM Tris.HCl buffer, pH 7.4 containing 0.25% heat inactivated bovine serum albumin (BSA): 80 ul membrane protein (10 to 20 ug/assay) to wells already containing 100 ul of incubation buffer (as described above) and 20 ul [^125 I](Sar^1,Ile^8)AmgII (Specific Activity, 2200 Ci/mmole) Non-specific binding is measured in the presence of 1.0 uM unlabeled (Sar^1,Ile^8)AngII, added in 20 ul volume. Specific binding for [^125 I](Sar^1,Ile^8) AngII is greater than 90%. In competition studies, experimental compounds are diluted in dimethylsulfoxide (DMSO) and added in 20 ul to wells before the introduction of tissue membranes. This concentration of DMSO is found to have no negative effects on the binding of [^ 125I] (Sar^1,Ile^8) AngII to the membranes. Assays are performed in triplicate. The wells are left undisturbed for 60 min. at room temperature. […] Presoaking the filter sheet in 0.1% polyethyleneimine in normal saline (PEI/Saline) greatly reduces the radioactivity retained by the filter blanks. […] The filters are removed from the filter grid and counted in a Parkard® Cobra Gamma Counder for 1 min. […] The binding data are analyzed by the non-linear interactive "LUNDON-1" program (LUNDON SOFTWARE Inc., Cleveland, Ohio U.S.A.).
For orientation: Displacement assays read how much labelled ligand stays bound in the presence of the test substance.

The IC50 is the concentration at which inhibition is half-maximal. Read a high IC50 as weaker potency. Turning to `CCCCc1nc2ccc([C@H]3OC[C@@H]4ON5[C@@H](CCC5(C)C)[C@@H]43)cc2c(=O)n1Cc1ccc(-c2ccccc2-c2nnn[nH]2)cc1` (relative stereo) [Example 8, (3α, 3aα, 8aβ, 8bα)'-2-Butyl-6-(6,6-dimethylocta hydrofuro[3,4-d][1,2-b]isoxazol-3-yl)-3[[2'-(1H-tetrazol-5-yl)[1,1'biphenyl]-4yl]methyl]-4(3H) quinazolinone], the 50% inhibitory concentration (IC50) stood at 37 nM.
